Settings in all cases: L55-73: estimated values based on the knowledge obtained from L01-L54
The target of one experiment is T1, Bevacizumab (Homo sapiens, UniProt P01857).
T1 construct: 0.5 mg/ml IgG in PBS pH 7.3; ligand immobilized on SEPHAR; Bevacizumab Yield; other: mass eluted (glycine pH 2.5) / mass injected; kd (dissociation constant, Langmuir isotherm); other: Bevacizumab 0.05-5 mg/ml in PBS pH 7.3, 25° C., at least 3 h; qm (maximum capacity); other: mg Bevacizumab per ml of resin; Langmuir isotherm; t0; fused on or other part: Humanized anti-VEGF-A VH domain joined N-terminally to the IGHG1 constant region (engineered, no UniProt entry)
Put plainly: Microtiter plate chromatography of resins: binding and elution of Bevacizumab. The method, then: (§1) Resins were assessed in packed mode by microtiter plate chromatography. For each column, approximately 30 μl of resin were transferred to a 384-well filter plate and sealed with appropriate top fits. Columns with rProtein A SEPHAROSE 4 FF and MABSORBENT A2P HF were included as controls.
(§2) Either 3.3 cv of whole IgGs dissolved at 0.5 mg ml^−1 in PBS or undiluted host cell proteins (HCP) were injected onto columns.
(§3) Unbound protein was washed from columns with 5 cv of PBS prior to elution with 5 cv of glycine buffer at pH 2.5. […] During injection of samples, speed was reduced to 10 g and centrifugation time increased to 5-10 min. Effluent fractions were collected in 384-well plates and concentrations of protein were analyzed by Bradford assay. Protein masses mi, mft and me (see below) were calculated as the product of fraction volume and measured protein concentration.
(§4) The fraction of bound protein was calculated as the difference between the total mass of protein injected mi and the mass of protein detected in the flowthrough mft, divided by the total mass of protein injected.
(§5) The yield of protein was calculated as the mass of protein eluted me, divided by the mass of protein injected mi.
The selectivity of resins was calculated as the fraction of bound Bevacizumab antibody BAb, divided by the fraction of bound host cell proteins BHCP.
(§6) The fraction of bound protein and the yield of protein were calculated for each resin based on data for whole IgG-antibodies. In the case of host cell proteins, only the fraction of bound protein is given. Selectivity of resins was calculated from data for Bevacizumab whole IgG and host cell proteins. Due to limited experimental precision, selectivity was truncated for values beyond 10.

Another experiment has as its system Tocilizumab. The experiment in a line: Microtiter plate chromatography of resins: binding and elution of Tocilizumab. The method, then: as §1, §2, §3, §4, §5, §6
The test system of a further experiment is Palivizumab. Put plainly: Microtiter plate chromatography of resins: binding and elution of Palivizumab. The protocol: as §1, §2, §3, §4, §5, §6
The test system of the next experiment is Cetuximab. Put plainly: Microtiter plate chromatography of resins: binding and elution of Cetuximab. The method, then: as §1, §2, §3, §4, §5, §6
The subject of experiment [1] is poly-IgG from human serum (h-poly-IgG). The experiment in a line: Microtiter plate chromatography of resins: binding and elution of human poly-IgG. The method, then:
as §1, §2, §3, §4, §5, §6

Another experiment has as its system host cell proteins (HCP). The experiment in a line: Microtiter plate chromatography of resins: binding of host cell proteins. More on the design: species or system CHO cell culture. The method, then: Flowthrough from protein A chromatography (referred to as host cell proteins) was derived from the supernatant of antibody-producing CHO cell culture in serum-free medium. Coomassie brilliant blue dye reagent for Bradford assay was purchased from Thermo Scientific (Bonn/Germany).
as §1, §2, §3, §4, §6

Regarding `Cc1nc2cc(C(=O)Nc3nnc(-c4cnco4)s3)ccc2n1CCCN` [Ligand L72, 1-(3-Amino-1-propyl)-2-methylbenzimidazole-5-carboxylic acid N-[5-(5-oxazolyl)-1,3,4-thiadiazol-2-yl] amide], on Bevacizumab, the “Bevacizumab Bound” value is on record as 100% and the “Bevacizumab Yield” value was more than 80%. Besides, the “Tocilizumab Bound” value in the experiment on Tocilizumab is reported as more than 90%. Moreover, the “Palivizumab Bound” value with Palivizumab is more than 60%. The “Cetuximab Bound” value with Cetuximab was more than 95%. The “h-poly-IgG Bound” value in experiment [1] is reported as more than 80%. The “HCP Bound” value in the experiment on host cell proteins (HCP) is reported as less than 20%.

`Cc1nc2cc(C(=O)Nc3ncc(-c4ccco4)s3)ccc2n1CCCN` [Ligand L63, 1-(3-Amino-1-propyl)-2-methylbenzimidazole-5-carboxylic acid N-[5-(2-furyl)thiazol-2-yl] amide]: on Bevacizumab, the “Bevacizumab Bound” value is listed as 100% and the “Bevacizumab Yield” value was more than 80%. The “Tocilizumab Bound” value with Tocilizumab was more than 95%. The “Palivizumab Bound” value with Palivizumab is recorded as more than 80%. For the same compound, the “Cetuximab Bound” value with Cetuximab is 100%. Besides, the “h-poly-IgG Bound” value in experiment [1] was more than 80%. Also, the “HCP Bound” value in the experiment on host cell proteins (HCP) is given as less than 20%.

On to `Cc1nc2cc(C(=O)Nc3nnc(-c4ccno4)s3)ccc2n1CCCN` [Ligand L71, 1-(3-Amino-1-propyl)-2-methylbenzimidazole-5-carboxylic acid N-[5-(5-isoxazolyl)-1,3,4-thiadiazol-2-yl] amide], for which, at Bevacizumab, the “Bevacizumab Bound” value is given as 100% and the “Bevacizumab Yield” value is recorded as more than 80%. Moreover, the “Tocilizumab Bound” value with Tocilizumab is more than 90%. The “Palivizumab Bound” value with Palivizumab is recorded as more than 60%. In addition, in the experiment with Cetuximab, the “Cetuximab Bound” value is reported as more than 95%. Further, the “h-poly-IgG Bound” value in experiment [1] is reported as more than 80%. Also, the “HCP Bound” value in the experiment on host cell proteins (HCP) is less than 20%.

For `CCc1nc2cc(C(=O)Nc3nc(-c4ccco4)ns3)ccc2n1CCCN` [Ligand L65, 1-(3-Amino-1-propyl)-2-ethylbenzimidazole-5-carboxylic acid N-[3-(2-furyl)-1,2,4-thiadiazol-5-yl] amide], on Bevacizumab, the “Bevacizumab Bound” value is on record as 100% and the “Bevacizumab Yield” value is on record as more than 80%. Further, the “Tocilizumab Bound” value in the experiment on Tocilizumab was more than 95%. For the same compound, in the experiment on Palivizumab, the “Palivizumab Bound” value was more than 80%. In the experiment with Cetuximab, the “Cetuximab Bound” value was 100%. The “h-poly-IgG Bound” value in experiment [1] is more than 80%. Moreover, the “HCP Bound” value in the experiment on host cell proteins (HCP) was less than 30%.

Turning to `Cc1nc2cc(C(=O)Nc3nc(-c4ccco4)cs3)ccc2n1CCCN` [Ligand L62, 1-(3-Amino-1-propyl)-2-methylbenzimidazole-5-carboxylic acid N-[4-(2-furyl)thiazol-2-yl] amide], on Bevacizumab, the “Bevacizumab Bound” value was 100% and the “Bevacizumab Yield” value was more than 80%. Also, in the experiment on Tocilizumab, the “Tocilizumab Bound” value is more than 95%. In the experiment with Palivizumab, the “Palivizumab Bound” value is given as more than 80%. Also, the “Cetuximab Bound” value in the experiment on Cetuximab is reported as 100%. In addition, the “h-poly-IgG Bound” value in experiment [1] is listed as more than 80%. The “HCP Bound” value with host cell proteins (HCP) is on record as less than 40%.

`Cc1nc2cc(C(=O)Nc3nc(-c4ccco4)ns3)ccc2n1CCCN` [Ligand L60, 1-(3-Amino-1-propyl)-2-methylbenzimidazole-5-carboxylic acid N-[3-(2-furyl)-1,2,4-thiadiazol-5-yl] amide]: at Bevacizumab, the “Bevacizumab Bound” value is 100% and the “Bevacizumab Yield” value was more than 80%. Moreover, the “Tocilizumab Bound” value in the experiment on Tocilizumab is given as more than 95%. For the same compound, in the experiment with Palivizumab, the “Palivizumab Bound” value is given as more than 80%. In addition, the “Cetuximab Bound” value in the experiment on Cetuximab is 100%. Further, the “h-poly-IgG Bound” value in experiment [1] is recorded as more than 80%. In addition, the “HCP Bound” value in the experiment with host cell proteins (HCP) is given as less than 40%.

As to `NCCCn1cnc2cc(C(=O)Nc3ccc(-c4ccco4)nn3)ccc21` [Ligand L59, 1-(3-Amino-1-propyl)benzimidazole-5-carboxylic acid N-[6-(2-furyl)pyridazin-3-yl] amide], on Bevacizumab, the “Bevacizumab Bound” value is 100% and the “Bevacizumab Yield” value is more than 80%. For the same compound, in the experiment on Tocilizumab, the “Tocilizumab Bound” value is more than 90%. Further, in the experiment with Palivizumab, the “Palivizumab Bound” value is on record as more than 60%. Also, in the experiment on Cetuximab, the “Cetuximab Bound” value is more than 95%. Besides, the “h-poly-IgG Bound” value in experiment [1] was more than 80%. Moreover, in the experiment on host cell proteins (HCP), the “HCP Bound” value is recorded as less than 40%.

On to `NCCCn1cnc2cc(C(=O)Nc3nc(-c4ccco4)ns3)ccc21` [Ligand L55, 1-(3-Amino-1-propyl)benzimidazole-5-carboxylic acid N-[3-(2-furyl)-1,2,4-thiadiazol-5-yl] amide], for which, at Bevacizumab, the “Bevacizumab Bound” value is recorded as 100% and the “Bevacizumab Yield” value is reported as more than 80%. For the same compound, in the experiment with Tocilizumab, the “Tocilizumab Bound” value is recorded as more than 95%. Besides, the “Palivizumab Bound” value in the experiment on Palivizumab is more than 80%. For the same compound, in the experiment on Cetuximab, the “Cetuximab Bound” value was 100%. Moreover, in experiment [1], the “h-poly-IgG Bound” value was more than 80%. In the experiment with host cell proteins (HCP), the “HCP Bound” value is listed as less than 40%.

As for `NCCCn1cnc2cc(C(=O)Nc3nnc(-c4ccoc4)s3)ccc21` [Ligand L56, 1-(3-Amino-1-propyl)benzimidazole-5-carboxylic acid N-[5-(3-furyl)-1,3,4-thiadiazol-2-yl] amide], at Bevacizumab, the “Bevacizumab Bound” value is given as 100% and the “Bevacizumab Yield” value is given as more than 80%. Also, the “Tocilizumab Bound” value with Tocilizumab is reported as more than 95%. The “Palivizumab Bound” value in the experiment on Palivizumab is recorded as more than 80%. Besides, in the experiment on Cetuximab, the “Cetuximab Bound” value is given as 100%. Further, in experiment [1], the “h-poly-IgG Bound” value is reported as more than 80%. For the same compound, the “HCP Bound” value with host cell proteins (HCP) is recorded as less than 40%.

Turning to `NCCCNc1nc(-c2ccc(C(=O)Nc3nnc(-c4ccco4)s3)cc2)cs1` [Ligand L70, 4-[2-(3-Amino-1-propylamino)thiazol-4-yl]benzoic acid N-[5-(2-furyl)-1,3,4-thiadiazol-2-yl]amide], at Bevacizumab, the “Bevacizumab Bound” value is recorded as 100% and the “Bevacizumab Yield” value is reported as more than 80%. For the same compound, the “Tocilizumab Bound” value in the experiment on Tocilizumab is reported as more than 80%. The “Palivizumab Bound” value in the experiment with Palivizumab is on record as more than 50%. Further, in the experiment on Cetuximab, the “Cetuximab Bound” value is on record as more than 80%. In addition, in experiment [1], the “h-poly-IgG Bound” value is listed as more than 80%. Moreover, the “HCP Bound” value in the experiment with host cell proteins (HCP) is listed as less than 40%.

As for `Cc1nc2cc(C(=O)Nc3ccc(-c4ccco4)nn3)ccc2n1CCCN` [Ligand L64, 1-(3-Amino-1-propyl)-2-methylbenzimidazole-5-carboxylic acid N-[6-(2-furyl)pyridazin-3-yl] amide], at Bevacizumab, the “Bevacizumab Bound” value is listed as 100% and the “Bevacizumab Yield” value is given as more than 80%. In the experiment on Tocilizumab, the “Tocilizumab Bound” value was more than 90%. In addition, the “Palivizumab Bound” value with Palivizumab is more than 60%. In the experiment with Cetuximab, the “Cetuximab Bound” value is listed as more than 95%. Further, in experiment [1], the “h-poly-IgG Bound” value is on record as more than 80%. Also, the “HCP Bound” value with host cell proteins (HCP) is listed as less than 20%.

Take `CCc1nc2cc(C(=O)Nc3nnc(-c4ccoc4)s3)ccc2n1CCCN` [Ligand L66, 1-(3-Amino-1-propyl)-2-ethylbenzimidazole-5-carboxylic acid N-[5-(3-furyl)-1,3,4-thiadiazol-2-yl] amide]: at Bevacizumab, the “Bevacizumab Bound” value was 100% and the “Bevacizumab Yield” value is listed as more than 80%. In the experiment with Tocilizumab, the “Tocilizumab Bound” value is given as more than 95%. For the same compound, in the experiment with Palivizumab, the “Palivizumab Bound” value is reported as more than 80%. Further, the “Cetuximab Bound” value in the experiment with Cetuximab is listed as 100%. In experiment [1], the “h-poly-IgG Bound” value is listed as more than 80%. For the same compound, the “HCP Bound” value in the experiment with host cell proteins (HCP) was less than 30%.

For the compound `Cc1nc2cc(C(=O)Nc3nnc(-c4ncco4)s3)ccc2n1CCCN` [Ligand L73, 1-(3-Amino-1-propyl)-2-methylbenzimidazole-5-carboxylic acid N-[5-(2-oxazolyl)-1,3,4-thiadiazol-2-yl] amide], at Bevacizumab, the “Bevacizumab Bound” value is 100% and the “Bevacizumab Yield” value is more than 80%. In the experiment with Tocilizumab, the “Tocilizumab Bound” value is more than 90%. Moreover, the “Palivizumab Bound” value with Palivizumab is more than 60%. In addition, the “Cetuximab Bound” value in the experiment with Cetuximab is on record as more than 95%. Besides, the “h-poly-IgG Bound” value in experiment [1] was more than 80%. Besides, the “HCP Bound” value in the experiment on host cell proteins (HCP) was less than 20%.

The values above are taken from US9745339B2 (GRAFFINITY PHARMACEUTICALS GMBH, priority 2012, dated 2017).
